We go through 4 molecules from patent publication US8710178B2, “Macrocyclic cysteine protease inhibitors and compositions thereof” (Lincoln University, priority 2006, dated 2014).

Like-named read-outs stand apart in the source and are kept apart here.

The target of data set [1] is T1, papain (Carica papaya, UniProt P00784).
T1 sequence (P00784 134-345): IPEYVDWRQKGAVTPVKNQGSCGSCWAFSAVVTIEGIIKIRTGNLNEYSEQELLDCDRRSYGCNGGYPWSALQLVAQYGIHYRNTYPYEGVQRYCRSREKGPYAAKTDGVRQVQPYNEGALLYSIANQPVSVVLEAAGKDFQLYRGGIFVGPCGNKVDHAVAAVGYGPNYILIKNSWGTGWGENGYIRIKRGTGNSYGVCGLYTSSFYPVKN
Kind of data set: BODIPY-casein fluorescence-based enzyme assay, papain. In kind it is biochemical. As to conditions: BODIPY-casein substrate.
Experimental: (§1) The inhibitors were assayed against several enzymes using a BODIPY-casein substrate in the fluorescence-based assay procedure of V. F. Thompson, S. Saldana, J. Cong and D. E. Goll, Anal. Biochem. 2000, 279, 170.

The subject of data set [2] is lambs genetically predisposed to cataracts. Briefly: Cataract progression in lambs genetically predisposed to cataracts. As to conditions: for cataract progression in both eyes versus placebo-treated lambs: 1% ointment (25 mg) twice daily for three months, p=0.066 (compound 9), p=0.26 (compound 8); for cataract progression, treated right eye versus left eye: 1% ointment (25 mg) twice daily to right eye for three months, slit-lamp microscope.
Experimental: A flock of 63 lambs genetically predisposed to cataracts were split into three equal groups. […] A placebo ointment (25 mg) was applied twice daily to the right eye of the final group of 21 lambs for three months starting when they were three to four months old.
The progression of cataracts was determined by a veterinary ophthalmologist with a slit-lamp microscope.

Data set [3] addresses cathepsin B (Homo sapiens, UniProt P07858). Briefly: BODIPY-casein fluorescence-based enzyme assay, cathepsin B. The note with it: BODIPY-casein substrate. In kind it is biochemical.
Data set [4] concerns the target α-chymotrypsin (Bos taurus, UniProt P00766). Kind of data set: BODIPY-casein fluorescence-based enzyme assay, α-chymotrypsin. As to conditions: BODIPY-casein substrate. In kind it is biochemical.
For data set [5], the target named is T2, calpain II (m calpain) (Homo sapiens, UniProt P17655).
T2 sequence (P17655 1-700): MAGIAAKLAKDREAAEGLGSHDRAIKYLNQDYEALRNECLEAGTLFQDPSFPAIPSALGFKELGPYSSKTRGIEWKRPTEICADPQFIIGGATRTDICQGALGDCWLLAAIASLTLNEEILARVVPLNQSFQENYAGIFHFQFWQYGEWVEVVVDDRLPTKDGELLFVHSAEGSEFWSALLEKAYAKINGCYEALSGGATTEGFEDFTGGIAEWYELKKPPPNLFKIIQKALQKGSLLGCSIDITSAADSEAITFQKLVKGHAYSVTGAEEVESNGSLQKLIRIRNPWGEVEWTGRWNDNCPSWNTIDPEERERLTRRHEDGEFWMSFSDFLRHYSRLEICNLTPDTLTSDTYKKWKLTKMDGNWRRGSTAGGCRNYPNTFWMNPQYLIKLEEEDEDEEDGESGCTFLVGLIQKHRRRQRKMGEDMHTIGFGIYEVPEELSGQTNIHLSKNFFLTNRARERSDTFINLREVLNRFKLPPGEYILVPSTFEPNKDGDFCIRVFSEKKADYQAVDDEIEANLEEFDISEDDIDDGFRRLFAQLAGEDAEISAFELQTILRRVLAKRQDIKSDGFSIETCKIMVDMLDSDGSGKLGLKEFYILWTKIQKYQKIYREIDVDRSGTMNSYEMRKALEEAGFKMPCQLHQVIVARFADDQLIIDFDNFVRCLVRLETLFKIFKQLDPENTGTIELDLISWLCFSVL
T2 sequence (P04632 1-268 partner): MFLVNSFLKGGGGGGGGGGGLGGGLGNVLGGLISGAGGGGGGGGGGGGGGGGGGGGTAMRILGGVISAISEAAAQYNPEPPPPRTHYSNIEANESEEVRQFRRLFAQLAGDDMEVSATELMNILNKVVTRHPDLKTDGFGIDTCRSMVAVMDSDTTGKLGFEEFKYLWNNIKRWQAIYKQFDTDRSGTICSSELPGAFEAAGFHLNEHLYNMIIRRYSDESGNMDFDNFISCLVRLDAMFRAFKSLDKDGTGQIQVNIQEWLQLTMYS
Briefly: BODIPY-casein fluorescence-based enzyme assay, calpain II / m-calpain. It counts as biochemical. The note with it: BODIPY-casein substrate.
Experimental: as §1
A number of the compounds were assayed against m-calpain using a BODIPY-casein substrate in the fluorescence-based assay procedure of V. F. Thompson, S. Saldana, J. Cong and D. E. Goll, Anal. Biochem. 2000, 279, 170.

Data set [6] has as its target T3, calpain I (μ calpain) (Homo sapiens, UniProt P07384).
T3 sequence (P07384 1-714): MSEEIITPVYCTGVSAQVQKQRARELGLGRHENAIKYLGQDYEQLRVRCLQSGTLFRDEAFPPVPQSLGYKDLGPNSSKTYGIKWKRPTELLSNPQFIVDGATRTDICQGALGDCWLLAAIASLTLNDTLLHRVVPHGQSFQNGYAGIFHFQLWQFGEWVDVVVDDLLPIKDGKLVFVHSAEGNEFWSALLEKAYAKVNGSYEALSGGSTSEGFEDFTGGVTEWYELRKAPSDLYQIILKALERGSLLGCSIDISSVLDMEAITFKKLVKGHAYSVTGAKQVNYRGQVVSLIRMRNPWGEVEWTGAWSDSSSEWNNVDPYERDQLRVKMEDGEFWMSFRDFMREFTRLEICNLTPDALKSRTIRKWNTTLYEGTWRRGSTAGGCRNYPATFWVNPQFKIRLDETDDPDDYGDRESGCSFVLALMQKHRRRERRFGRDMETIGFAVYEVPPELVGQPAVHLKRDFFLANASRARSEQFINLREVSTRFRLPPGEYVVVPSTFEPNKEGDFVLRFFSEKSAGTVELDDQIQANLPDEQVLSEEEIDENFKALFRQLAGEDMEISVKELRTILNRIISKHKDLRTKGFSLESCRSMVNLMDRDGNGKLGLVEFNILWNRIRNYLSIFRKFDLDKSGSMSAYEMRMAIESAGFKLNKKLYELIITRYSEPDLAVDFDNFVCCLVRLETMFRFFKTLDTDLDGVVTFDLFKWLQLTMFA
T3 sequence (P04632 1-268 partner): T2 sequence (P04632 1-268 partner)
Briefly: BODIPY-casein fluorescence-based enzyme assay, calpain I. As to conditions: BODIPY-casein substrate. In kind it is biochemical.

Data set [7] has as its system eye of a lamb. Kind of data set: Eye irritation test of ointment in a lamb. In kind it is in vivo. As to conditions: ointment (50 mg) comprising 1% of compound, one eye of a lamb, three times in one day.
Where [8] appears, read: Table 2, read-out: IC50 calpain II (m calpain).
Where [9] appears, read: Table 3, read-out: IC50 against m-calpain.

A word on the IC50: it is the concentration needed to halve the response being measured. For the molecule `CC(C)C[C@@H]1NC(=O)[C@@H](NC(=O)OCc2ccccc2)Cc2ccc(cc2)OCCCC[C@@H](CO)NC1=O` [Compound 8], the concentration for half-maximal inhibition (IC50) is more than 50000 nM in data set [1]; 290 nM in data set [3]; more than 50000 nM in data set [4]; 700 nM in data set [5] (setting [8]); 700 nM in data set [5] (setting [9]); 1750 nM in data set [6]. Moreover, the “cataract progression in both eyes versus placebo-treated lambs” value in data set [2] is given as “significantly slower”. The “cataract progression, treated right eye versus left eye” value in data set [2] is “did not show significantly slower cataract progression”.
On to `CC(C)C[C@@H]1NC(=O)[C@@H](NC(=O)OCc2ccccc2)Cc2ccc(cc2)OCCCC[C@@H](CN=[N+]=[N-])NC1=O` [Compound 79, (7S-azidomethyl-10S-isobutyl-9,12-dixoxo-2-oxa-8,11-diazabicyclo-[13.2.2]nonadeca-1(18),15(19),16-trien-13S-yl)carbamic acid benzyl ester], for which the half-maximal inhibitory concentration (IC50) in data set [1], in data set [3], in data set [4], in data set [5] (setting [8]), in data set [5] (setting [9]) and in data set [6] was more than 50000 nM each time.
With `CC(C)C[C@@H]1NC(=O)[C@@H](NC(=O)OCc2ccccc2)Cc2ccc(cc2)OCCCCC[C@@H](C=O)NC1=O` [Compound 28], the concentration for half-maximal inhibition (IC50) in data set [1] is more than 50000 nM; in data set [3], 770 nM; in data set [4] it was more than 50000 nM; in data set [5] (setting [8]), 180 nM; in data set [5] (setting [9]) it was 180 nM; in data set [6], 170 nM.
`CC(C)C[C@@H]1NC(=O)[C@@H](NC(=O)OCc2ccccc2)Cc2ccc(cc2)OCCCC[C@@H](C=O)NC1=O` [Compound 9]: the IC50 in data set [1] is more than 50000 nM; in data set [3], 70 nM; in data set [4], more than 50000 nM; in data set [5] (setting [8]) it was 30 nM; in data set [5] (setting [9]), 30 nM; in data set [6] it was 223 nM. Besides, in data set [2], the “cataract progression in both eyes versus placebo-treated lambs” value is recorded as “significantly slower”. Besides, the “cataract progression, treated right eye versus left eye” value in data set [2] is “did not show significantly slower cataract progression”. Further, the “slowing of cortical cataract progression” value in data set [2] (over a 12 week period, flock of lambs genetically predisposed to cataracts) stood at 30%. The signs of toxicity result in data set [2] (over a 12 week period, lambs) is on record as “no signs of toxicity”. The sign of irritation entry in data set [7] is reported as “No sign of irritation”.
